Data from US7674586B2, “Methods of identifying modulators of L-glutamate-gated chloride channel proteins from Rhipicephalus sanguineus” (Merial Limited, priority 2000, dated 2010).

Key:
RsGluCl1 (T12) = assay: Two-microelectrode voltage clamp of Xenopus oocytes injected with RsGluCl1 T12 RNA; type: cell-based, Rhipicephalus sanguineus; settings: for channel activation / current in response (qualitative): RsGluCl1 expressed in Xenopus oocytes
Experimental: (§1) Xenopus laevis oocytes were prepared and injected using standard methods previously described [Arena, J. P., Liu, K. K., Paress, P. S. & Cully, D. P. Mol. Pharmacol. 40, 368-374 (1991); Arena, J. P., Liu, K. K., Paress, P. S., Schaeffer, J. M. & Cully, D. F., Mol. Brain. Res. 15, 339-348 (1992)]. Adult female Xenopus laevis were anesthetized with 0.17% tricaine methanesulfonate and the ovaries were surgically removed and placed in a solution consisting of (mM): NaCl 82.5, KCl 2, MgCl2 1, HEPES 5, NaPyruvate 2.5, Penicillin G. 100,000 units/L, Streptomycin Sulfate 1000 mg/L, pH 7.5 (Mod. OR-2). Ovarian lobes were broken open, rinsed several times in Mod. OR-2, and incubated in 0.2% collagenase (Sigma, Type1) in Mod. OR-2 at room temperature with gentle shaking. After 1 hour the collagenase solution was renewed and the oocytes were incubated for an additional 30-90 min until approximately 50% of the oocytes were released from the ovaries. Stage V and VI oocytes were selected and placed in media containing (mM): NaCl 96, KCl 2, MgCl2 1, CaCl2 1.8, HEPES 5, NaPyruvate 2.5, theophylline 0.5, gentamicin […], pH 7.5 (ND-96) for 16-24 hours before injection. Oocytes were injected with 50 nl of Dv8, Dv9, RsGluCl1 or RsGluCl2 RNA at a concentration of 0.2 mg/ml. Oocytes were incubated at 18° C. for 1-6 days in ND-96 before recording.
(§2) Recordings were made at room temperature in modified ND-96 consisting of (mM: NaCl 96, MgCl2 1, CaCl2 0.1, BaCl2 3.5, HEPES 5, pH 7.5. Oocytes were voltage clamped using a Dagan CA1 two microelectrode amplifier (Dagan Corporation, Minneapolis, Minn.) interfaced to a Macintosh 7100/80 computer. The current passing electrode was filled with 0.7 M KCl, 1.7 M KCitrate, and the voltage recording electrode was filled with 1 M KCl. Throughout the experiment oocytes were superfused with modified ND-96 (control solution) or with ND-96 containing potential channel activators and blockers at a rate of approximately 3 ml/min. Data were acquired at 100 Hz and filtered at 33.3 Hz using Pulse software from HEKA Elektronik (Lambrecht, Germany). All recordings were performed from a holding potential of either 0 or −30 mV.
cRNA was synthesized from the RsGluCl 1S clone T12 and expressed in Xenopus oocytes. The channel encoded by RsGluCl-1 is a glutamate-gated chloride channel activated by IVM-PO4.

RsGluCl2 = assay: Two-microelectrode voltage clamp of Xenopus oocytes injected with RsGluCl2 RNA; type: cell-based, Rhipicephalus sanguineus; settings: for channel activation / current in response (qualitative): RsGluCl2 expressed in Xenopus oocytes as a single functional channel
Experimental: as §1
as §2, with “All recordings were performed from a holding potential of either 0 or −30 mV.” left out

Molecule | concentration at which current activation was maximal (RsGluCl1 (T12); RsGluCl1 T12 RNA in Xenopus oocytes, FIG. 10) | channel activation / current in response (qualitative) (RsGluCl1 (T12)) | channel activation / current in response (qualitative) (RsGluCl2) | current produced on application (RsGluCl1 (T12); 100 nM, compared with the glutamate-activated current, RsGluCl1 T12 in Xenopus oocytes) | concentration at which current activation was maximal (RsGluCl2; RsGluCl2 expressed in Xenopus oocytes, FIG. 11)
N[C@@H](CCC(=O)O)C(=O)O [glutamate] | 10 µM | exhibits a current | failed to activate a current |  | 
ivermectin phosphate |  | activated | exhibit a current |  | 
CC[C@H](C)[C@H]1O[C@]2(CC[C@@H]1C)C[C@@H]1C[C@@H](C/C=C(\C)[C@@H](O[C@H]3C[C@H](OC)[C@@H](O[C@H]4C[C@H](OC)[C@@H](O)[C@H](C)O4)[C@H](C)O3)[C@@H](C)/C=C/C=C3\CO[C@@H]4[C@H](O)C(C)=C[C@@H](C(=O)O1)[C@]34O)O2 [ivermectin, 22,23-dihydro-avermectin B1a] |  |  |  | produces a similar although non-inactivating current | ~1 µM
